From patent US8513225B2, “Composition and method for topical treatment of skin lesions” (Winlind Skincare, LLC, priority 2008, dated 2013)

Legend:
[1] = repeated application to normal skin of adults without acne; conditions: applied repeatedly to face and arm, 2 adults, several days
[2] = penetration of PG into human nails; conditions: 30 minutes after application of a thin layer to nail surface, adults
wart = conditions: conventional treatment; cited from earlier work

Compound	adverse reactions on normal skin [1]	absorption into nails [2]	time for wart removal process (wart) [weeks]
CC(O)CO (stereo not drawn) [100% PG, propylene glycol]	No adverse reactions were observed	virtually no PG can be found on the nail surface	–
O=C(O)c1ccccc1O [high strength salicylic acid, salicylic acid]	–	–	6 to 12
